Assay results published in paper PMC7211203 (European Journal of Drug Metabolism and Pharmacokinetics, 2020).
Marks after values point to notes of the source that are not given here.

Legend:
[1] = Safety: adverse events in patients with advanced solid tumors; type: in vivo, human
[2] = molecular target: CYP3A4 (Homo sapiens, UniProt P08684); conditions: cited from earlier work
[3] = cited from earlier work
[4] = cited from earlier work; remark: listed apart in the source
[5] = phase 1 study; cited from earlier work
[6] = tested on: CYP3A4; conditions: ref Eisai, data on file; cited from earlier work
[7] = safety analysis set n = 30, treatment phase

Sequence of CYP3A4 (Homo sapiens, UniProt P08684) (P08684 whole entry): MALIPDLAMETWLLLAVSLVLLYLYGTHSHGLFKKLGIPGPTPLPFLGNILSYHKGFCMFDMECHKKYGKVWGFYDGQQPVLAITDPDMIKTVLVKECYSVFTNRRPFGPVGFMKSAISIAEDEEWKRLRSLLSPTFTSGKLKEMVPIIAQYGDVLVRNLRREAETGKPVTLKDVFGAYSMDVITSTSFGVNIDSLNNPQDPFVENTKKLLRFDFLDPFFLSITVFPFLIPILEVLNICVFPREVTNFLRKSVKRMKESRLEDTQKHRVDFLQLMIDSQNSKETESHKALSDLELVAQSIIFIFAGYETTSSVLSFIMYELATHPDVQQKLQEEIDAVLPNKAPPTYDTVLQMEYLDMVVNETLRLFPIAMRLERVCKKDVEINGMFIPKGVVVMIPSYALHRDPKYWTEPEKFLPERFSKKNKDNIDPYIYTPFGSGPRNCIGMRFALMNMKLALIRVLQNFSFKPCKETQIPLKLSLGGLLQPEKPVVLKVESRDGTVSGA

## COc1cc2nccc(Oc3ccc(NC(=O)NC4CC4)c(Cl)c3)c2cc1C(N)=O [lenvatinib]
[1]; all treatment-related SAEs
  Grade of treatment-related SAEs: ≤ 3 grade
[1]; extension phase (Eisai, data on file)
  New AEs in the extension phase: No new AEs
[1]; grade 5 TEAE (intestinal obstruction), related to underlying colon cancer
  Patients who died during the treatment phase: One
[1]; lenvatinib 24 mg once daily, patients with advanced solid tumors
  Tolerability: generally well tolerated
[1]; safety analysis set n = 30
  Abdominal pain upper: SAEs: 1 (3.3) n (%)
  Abdominal pain: SAEs: 2 (6.7) n (%)
  Abdominal pain: TEAEs: 3 (10.0) n (%)
  Asthenia: SAEs: 1 (3.3) n (%)
  Asthenia: TEAEs: 3 (10.0) n (%)
  Asthenia: treatment-related AEs: 2 (6.7) n (%)
  Bradycardia: SAEs: 1 (3.3) n (%)
  Cardiac disorders: SAEs: 2 (6.7) n (%)
  Cerebral hemorrhage: SAEs: 1 (3.3) n (%)
  Cough: TEAEs: 2 (6.7) n (%)
  Diarrhea: TEAEs: 7 (23.3) n (%)
  Diarrhea: treatment-related AEs: 3 (10.0) n (%)
  Dysphonia: TEAEs: 2 (6.7) n (%)
  Dyspnea: SAEs: 1 (3.3) n (%)
  Dyspnea: TEAEs: 2 (6.7) n (%)
  Fatigue: TEAEs: 8 (26.7) n (%)
  Fatigue: treatment-related AEs: 5 (16.7) n (%)
  Gastrointestinal disorders: SAEs: 4 (13.3) n (%)
  Gastrointestinal disorders: TEAEs: 12 (40.0) n (%)
  Gastrointestinal disorders: treatment-related AEs: 6 (20.0) n (%)
  General disorders: SAEs: 1 (3.3) n (%)
  General disorders: TEAEs: 11 (36.7) n (%)
  General disorders: treatment-related AEs: 7 (23.3) n (%)
  Headache: TEAEs: 3 (10.0) n (%)
  Headache: treatment-related AEs: 2 (6.7) n (%)
  Hypertension: SAEs: 3 (10.0) n (%)
  Hypertension: TEAEs: 7 (23.3) n (%)
  Hypertension: treatment-related AEs: 6 (20.0) n (%)
  Nausea: TEAEs: 4 (13.3) n (%)
  Nausea: treatment-related AEs: 2 (6.7) n (%)
  Nervous system disorders: SAEs: 1 (3.3) n (%)
  Nervous system disorders: TEAEs: 5 (16.7) n (%)
  Nervous system disorders: treatment-related AEs: 2 (6.7) n (%)
  Patient deaths from TEAEs: SAEs: 1 (3.33) n (%)
  Pyrexia: SAEs: 1 (3.3) n (%)
  Rectal hemorrhage: SAEs: 1 (3.3) n (%)
  Respiratory, thoracic, and mediastinal disorders: SAEs: 1 (3.3) n (%)
  Respiratory, thoracic, and mediastinal disorders: TEAEs: 8 (26.7) n (%)
  Stress cardiomyopathy: SAEs: 1 (3.3) n (%)
  Vascular disorders: SAEs: 3 (10.0) n (%)
  Vascular disorders: TEAEs: 7 (23.3) n (%)
  Vascular disorders: treatment-related AEs: 6 (20.0) n (%)
  Vomiting: TEAEs: 2 (6.7) n (%)
  Vomiting: treatment-related AEs: 2 (6.7) n (%)
[1]; [7]
  Patients with any TEAEs: SAEs: 10 (33.3) n (%)
  Patients with any TEAEs: TEAEs: 26 (86.7) n (%)
  Patients with any TEAEs: treatment-related AEs: 17 (56.7) n (%)
[1]; safety analysis set n = 30, this SAE resulted in patient death
  Intestinal obstruction: SAEs: 1 (3.3)^c n (%)
[1]; treatment phase, n = 30
  Patients who discontinued treatment due to a TEAE: 6.7%
  Patients with SAEs considered treatment related: Four
  Patients with TEAEs leading to lenvatinib dose modification: 40%
  Patients with at least 1 TEAE: 86.7%
  Patients with dose reduction: 13.3%
  Patients with lenvatinib treatment interruption: 26.7%
  SAE abdominal pain, patients: 6.7%
  SAE hypertension, patients: 10%
  TEAE diarrhea, patients: 23.3%
  TEAE fatigue, patients: 26.7%
  TEAE hypertension, patients: 23.3%
  Treatment-related TEAE diarrhea, patients: 10.0%
  Treatment-related TEAE fatigue, patients: 16.7%
  Treatment-related TEAE hypertension, patients: 20.0%
[2]
  Effect on midazolam metabolism in physiologically based pharmacokinetic model: negligible effects
[3]
  Interaction with ketoconazole (inhibitor of CYP3A4): not clinically significant
[4]; after dosing
  tmax: 1 to 4 h
[4]
  half-life: 28 h
[5]
  Pharmacokinetic drug–drug interactions in combination with everolimus: no significant pharmacokinetic drug–drug interactions
[6]
  Action on CYP3A4: weak inducer and time-dependent inhibitor of CYP3A4
